Test results as given in patent US20230416202A1, “Small Molecule Compounds and Compositions” (Telo Therapeutics, Inc., priority 2020, published 2023).

Test system: Mutant TERT
Experiment: HepG2 hTERT mRNA assay (qPCR)
Format: cell-based, human
Details: HepG2 cells (mutated TERT), 48 hours, TERT mRNA via qPCR
Procedure: HepG2 cells (hepatocyte carcinoma (HCC) cells; with mutated TERT) or HEK293T cells (with wild type (wt) TERT) were seeded at 4,000 cells/well in 96-well plates. The following day, test compounds were added to cells for at concentrations of 25 uM, 12.5 uM, 6.25 uM, 3.125 uM, 1.563 uM, 0.781 uM, 0.391 uM, 0.195 uM, 0.098 uM or vehicle control (0.1% DMSO). Each condition was tested in three replicate wells. 48 hours post drug addition, the cells were harvested for RNA using the 96-Magmax RNA Isolation kit (Cat. No. AM1830). RNA was converted to cDNA using the Superscript III First strand cDNA synthesis kit (Cat. No. 18080051). RNA and cDNA concentration and quality were determined using the NanoQuant nucleic acid quantification method. 500 ng cDNA from each sample was used to detect TERT mRNA via qPCR. GUSB was also measured as an internal control and fold change to vehicle control was determined using the delta CT method.

Compound	IC50 (Homo sapiens) [µM]	IC50 [µM]
O=C(O)C[C@@H]1C[C@@H](c2ccc(C(F)(F)F)cc2)CN(Cc2ccc(Cl)cc2)C1 [Compound 116, 2-((3S,5S)-1-(4-chlorobenzyl)-5-(4-(trifluoromethyl)phenyl)piperidin-3-yl)acetic acid]	0.5 to 5	–
O=C(O)C[C@@H]1C[C@@H](c2ccc(C(F)(F)F)cc2)CN(Cc2ccc(F)cc2)C1 [Compound 117, 2-((3S,5S)-1-(4-fluorobenzyl)-5-(4-(trifluoromethyl)phenyl)piperidin-3-yl)acetic acid]	0.5 to 5	–
O=C(O)C[C@H]1C[C@H](c2ccc(C(F)(F)F)cc2)CN(Cc2ccc3ccccc3c2)C1 (racemic) [Compound 141, Anti-2-(1-(naphthalen-2-ylmethyl)-5-(4-(trifluoromethyl)phenyl)piperidin-3-yl)acetic acid]	0.5 to 5	–
CCC(C(=O)O)[C@@H]1C[C@@H](c2ccc(C(F)(F)F)cc2)CN(Cc2ccc(C(F)(F)F)cc2)C1 (mixture of isomers) [Compound 125, Anti-2-(1-(4-(trifluoromethyl)benzyl)-5-(4-(trifluoromethyl)phenyl)piperidin-3-yl)butanoic acid]	0.5 to 5	–
N#Cc1cccc([C@H]2C[C@H](CC(=O)O)CN(Cc3ccc(C(F)(F)F)cc3)C2)c1 (racemic) [Compound 127, anti-2-(5-(3-cyanophenyl)1-(4-(trifluoromethyl)benzyl)piperidin-3-yl)acetic acid]	0.5 to 5	–
O=C(O)C[C@H]1C[C@H](c2ccc(F)c(F)c2)CN(Cc2ccc(C(F)(F)F)cc2)C1 (racemic) [Compound 121, Anti-2-(-5-(3,4-difluorophenyl)-1-(4-(trifluoromethyl)benzyl)piperidin-3-yl)acetic acid]	0.5 to 5	–
N#Cc1cc(CN2C[C@H](CC(=O)O)C[C@@H](c3ccc(C(F)(F)F)cc3)C2)ccc1Cl (racemic) [Compound 140, Anti-2-(1-(4-chloro-3-cyanobenzyl)-5-(4-(trifluoromethyl)phenyl)piperidin-3-yl)acetic acid]	0.5 to 5	–
C#Cc1ccc([C@@H]2C[C@@H](CC(=O)O)CN(Cc3ccc(C4(C(F)(F)F)N=N4)cc3)C2)cc1 (single isomer, unassigned) [Compound 146]	0.5 to 5	–
O=C(O)C[C@H]1C[C@H](CCc2ccc(C(F)(F)F)cc2)CN(Cc2ccc(C(F)(F)F)cc2)C1 (racemic) [Compound 133, Anti-2-(1-(4-(trifluoromethyl)benzyl)-5-(4-(trifluoromethyl)phenethyl)piperidin-3-yl)acetic acid]	0.5 to 5	–
O=C(O)C[C@H]1C[C@H](c2ccc(Cl)cc2)CN(Cc2ccc(C(F)(F)F)cc2)C1 (racemic) [Compound 123, Anti-2-(-5-(4-chlorophenyl)-1-(4-(trifluoromethyl)benzyl)piperidin-3-yl)acetic acid]	< 0.5	–
O=C(O)C[C@H]1C[C@H](c2ccc(C(F)(F)F)cc2)CN(Cc2ccccc2)C1 (racemic) [Compound 138, Anti-2-(1-benzyl-5-(4-(trifluoromethyl)phenyl)piperidin-3-yl)acetic acid]	0.5 to 5	–
O=C(O)C[C@@H]1C[C@@H](c2ccc(C(F)(F)F)cc2)CN(Cc2ccccc2F)C1 [Compound 119, 2-((3S,5S)-1-(2-fluorobenzyl)-5-(4-(trifluoromethyl)phenyl)piperidin-3-yl)acetic acid]	0.5 to 5	–
O=C(O)C[C@@H]1C[C@@H](c2ccc(Cl)cc2)CN(Cc2ccc(Cl)cc2)C1 [Compound 139, 2-((3S,5S)-1-(4-chlorobenzyl)-5-(4-chlorophenyl)piperidin-3-yl)acetic acid]	0.5 to 5	–
O=C(O)C[C@H]1C[C@H](c2ccc(C(F)(F)F)cc2)CN(Cc2ccc(C(F)(F)F)c(F)c2)C1 (racemic) [Compound 130, Anti-2-(1-(3-fluoro-4-(trifluoromethyl)benzyl)-5-(4-(trifluoromethyl)phenyl)piperidin-3-yl)acetic acid]	0.5 to 5	–
O=C(O)CC[C@H]1C[C@H](c2ccc(C(F)(F)F)cc2)CN(Cc2ccc(C(F)(F)F)cc2)C1 [Compound 126, Anti-3-(1-(4-(trifluoromethyl)benzyl)-5-(4-(trifluoromethyl)phenyl)piperidin-3-yl)propanoic acid]	0.5 to 5	–
O=C(O)C[C@H]1C[C@H](c2ccc(C(F)(F)F)cc2)CN(Cc2ccc(C(F)(F)F)cc2F)C1 (racemic) [Compound 128, Anti-2-(1-(2-fluoro-4-(trifluoromethyl)benzyl)-5-(4-(trifluoromethyl)phenyl)piperidin-3-yl)acetic acid]	0.5 to 5	–
[N-]=[N+]=NCc1ccc(CN2C[C@@H](CC(=O)O)C[C@H](c3ccc(N=[N+]=[N-])cc3)C2)cc1 (racemic) [Compound 134, anti-2-(1-(4-(azidomethyl)benzyl)-5-(4-azidophenyl)piperidin-3-yl)acetic acid]	0.5 to 5	–
C#Cc1ccc([C@H]2C[C@H](CC(=O)O)CN(Cc3ccc(N=[N+]=[N-])cc3)C2)cc1 (racemic) [Compound 137, Anti-2-(1-(4-azidobenzyl)-5-(4-ethynylphenyl)piperidin-3-yl)acetic acid]	0.5 to 5	–
O=C(O)C[C@H]1C[C@H](c2cccc(Cl)c2)CN(Cc2ccc(C(F)(F)F)cc2)C1 (racemic) [Compound 143, Anti-2-(5-(3-chlorophenyl)-1-(4-(trifluoromethyl)benzyl)piperidin-3-yl)acetic acid]	5 to 25	–
O=C(O)C[C@H]1C[C@H](c2ccc(Cl)cc2)CN(Cc2ccc(Cl)cc2)C1 (racemic) [Compound 135, Anti-2-(1-(4-chlorobenzyl)-5-(4-chlorophenyl)piperidin-3-yl)acetic acid]	< 0.5	–
C#Cc1ccc(CN2C[C@H](CC(=O)O)C[C@@H](c3ccc(N=[N+]=[N-])cc3)C2)cc1 (single isomer, unassigned) [Compound 144]	0.5 to 5	–
C#Cc1ccc([C@H]2C[C@H](CC(=O)O)CN(Cc3ccc(C4(C(F)(F)F)N=N4)cc3)C2)cc1 (racemic) [Compound 136, Anti-2-(5-(4-ethynylphenyl)-1-(4-(3-(trifluoromethyl)-3H-diazirin-3-yl)benzyl)piperidin-3-yl)acetic acid]	0.5 to 5	–
N#Cc1cccc(CN2C[C@@H](CC(=O)O)C[C@H](c3ccc(C(F)(F)F)cc3)C2)c1 (racemic) [Compound 124, Anti-2-(-1-(3-cyanobenzyl)-5-(4-(trifluoromethyl)phenyl)piperidin-3-yl)acetic acid]	< 0.5	–
O=C(O)C[C@H]1C[C@H](c2ccc(C(F)(F)F)c(F)c2)CN(Cc2ccc(C(F)(F)F)cc2)C1 (racemic) [Compound 129, Anti-2-(5-(3-fluoro-4-(trifluoromethyl)phenyl)-1-(4-(trifluoromethyl)benzyl)piperidin-3-yl)acetic acid]	0.5 to 5	–
O=C(O)C[C@H]1C[C@H](c2ccc(F)cc2)CN(Cc2ccc(C(F)(F)F)cc2)C1 (racemic) [Compound 122, Anti-2-(5-(4-fluorophenyl)-1-(4-(trifluoromethyl)benzyl)piperidin-3-yl)acetic acid]	0.5 to 5	–
O=C(O)C[C@@H]1C[C@@H](c2ccc(Cl)cc2)CN(Cc2ccc(C(F)(F)F)cc2)C1 (single isomer, unassigned) [Compound 142]	< 0.5	–
O=C(O)CC1CC(c2ccc(C(F)(F)F)cc2)CN(Cc2ccc(C(F)(F)F)cc2)C1 (stereo not drawn) [Compound 132]	–	0.5 to 5
